In this experiment the test system is chronic fatigue syndrome. The experiment is described as follows: Experiment 1: oral treatment of a subject diagnosed with chronic fatigue syndrome. The settings on record: one subject, CFS by CDC criteria; 100 mg capsules orally twice daily for two months. In kind it is in vivo, human. As for the experimental part:
One subject, recently diagnosed with chronic fatigue syndrome by CDC criteria, orally consumed 100 mg capsules of Δ5-androstene-3-acetyl-7,17-dione twice daily for two months. […] As testament to their improvement, they reported to their physician that they had just finished building a 20′×30′ addition to their bam, something, they said, they would not have and could not have done prior to taking Δ5-androstene-3-acetyl-7,17-dione.

The structures appear in SMILES notation.

Consider `CC(=O)O[C@H]1CC[C@@]2(C)C(=CC(=O)[C@@H]3[C@@H]2CC[C@]2(C)C(=O)CC[C@@H]32)C1` [Δ5-androstene-3-acetyl-7,17-dione], for which the “improvement in their symptoms of fatigue (self-reported)” value is listed as 80% and the “mental alertness (self-reported)” value is recorded as “felt more mentally alert”.
